# Test results reported in patent US20160223562A1, “Method for Determining the Concentration of a Peptide” (JPT Peptide Technologies GmbH, priority 2010, published 2016).
# Square brackets hold non-standard residues; d marks the D form. Peptide text beside a SMILES is read from it. Tyr(3-NO2) = N[C@@H](Cc1ccc(O)c([N+](=O)[O-])c1)C(=O)O
# Molecular target: T1, Trypsin (Sus scrofa, UniProt P00761)
# T1 construct: purchased Promega Corporation V511
# Assay: Trypsin cleavage of N-terminal quantification tag Ac-nitroTyr-SGK- from peptides, LC-MS with UV detection at 350 nm
# Type: biochemical
# Conditions: trypsin protocol of example 9, 24 h, RT
# Method: Trypsin Activation: Trypsin (20 μg, sequencing grade modified trypsin, Promega Corporation, Madison, Wis., USA, catalogue no. V511, specific activity 16.965 u/mg) was dissolved in Trypsin resuspension buffer (200 μL, Promega, catalogue no. V542A, ingredient 50 mM acetic acid) and incubated for 15 min at 37° C.
# Reduction and alkylation: The peptide (approx. 0.05 mg) was dissolved in 1 M urea and 100 mM fresh ammonium hydrogen carbonate (300 μL). TCEP (Tris(2-carboxyethyl) phosphine hydrochloride, 0.2 M, 7.5 μL, final concentration 5 mM) was added and the solution incubated at 37° C. for 1 h. After addition of iodoacetamide (0.5 M, 6.0 μL, final concentration 10 mM) the solution was incubated at RT in the dark for another 30 min. Digestion: The sample was digested with activated Trypsin solution (10 μL per well, 1.0 μg, resulting enzyme/substrate ratio 1:50) over night at RT. To stop the digestion, HCl (2 M, 8 μL final concentration 50 mM) and TFA (3.2 μL, final concentration 1%, pH<2) were added. Finally, the sample was analyzed by LC-MS at 350 nm.
# 38 peptides carrying the N-terminal quantification-tag Ac-nitroTyr-SGK-(SEQ ID NO:32) were synthesized by SPOT synthesis (Table 3). The peptide sequences are based on two different amino acid sequences, which in each case contain 19 different amino acids N-terminally attached to lysine (the 20 naturally occurring amino acids except cysteine).
# All peptides were subjected to the same trypsin cleavage protocol as described in example 9. It is apparent that the quantification tag is efficiently cleaved (>99%) in nearly all cases.
# T1 sequence (P00761 9-231): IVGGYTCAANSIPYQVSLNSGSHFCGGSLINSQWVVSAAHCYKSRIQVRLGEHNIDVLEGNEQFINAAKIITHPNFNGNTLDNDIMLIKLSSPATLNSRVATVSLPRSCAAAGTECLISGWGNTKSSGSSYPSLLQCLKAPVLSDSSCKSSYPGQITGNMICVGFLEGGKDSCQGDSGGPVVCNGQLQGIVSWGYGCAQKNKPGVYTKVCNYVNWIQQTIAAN
row,"Kusebauch 24 h, RT: Percent Cleavage of Tag [by UV350 - Peptide-Tag vs. Tag]",Compound
1,100.0%,"CC(=O)N[C@@H](Cc1ccc(O)c([N+](=O)[O-])c1)C(=O)N[C@@H](CO)C(=O)NCC(=O)N[C@@H](CCCCN)C(=O)N[C@@H](CCC(=O)O)C(=O)N[C@H](C(=O)N[C@@H](C)C(=O)N[C@@H](CC(C)C)C(=O)N[C@@H](CO)C(=O)N[C@@H](CC(C)C)C(=O)N[C@@H](CC(=O)O)C(=O)N[C@@H](CC(=O)O)C(=O)N[C@H](C(=O)N[C@@H](CCCCN)C(=O)O)C(C)C)C(C)C [Peptide 24, Ac-nitroTyr-SGKEVALSLDDV-K-OH] (Ac-[Tyr(3-NO2)]SGKEVALSLDDVK-OH)"
2,100.0%,"CC(=O)N[C@@H](Cc1ccc(O)c([N+](=O)[O-])c1)C(=O)N[C@@H](CO)C(=O)NCC(=O)N[C@@H](CCCCN)C(=O)N[C@@H](Cc1ccccc1)C(=O)N[C@H](C(=O)N[C@@H](C)C(=O)N[C@@H](CC(C)C)C(=O)N[C@@H](CO)C(=O)N[C@@H](CC(C)C)C(=O)N[C@@H](CC(=O)O)C(=O)N[C@@H](CC(=O)O)C(=O)N[C@H](C(=O)N[C@@H](CCCCN)C(=O)O)C(C)C)C(C)C [Peptide 25, Ac-nitroTyr-SGKFVALSLDDV-K-OH] (Ac-[Tyr(3-NO2)]SGKFVALSLDDVK-OH)"
3,99.3%,"CC(=O)N[C@@H](Cc1ccc(O)c([N+](=O)[O-])c1)C(=O)N[C@@H](CO)C(=O)NCC(=O)N[C@@H](CCCCN)C(=O)NCC(=O)N[C@H](C(=O)N[C@@H](C)C(=O)N[C@@H](CC(C)C)C(=O)N[C@@H](CO)C(=O)N[C@@H](CC(C)C)C(=O)N[C@@H](CC(=O)O)C(=O)N[C@@H](CC(=O)O)C(=O)N[C@H](C(=O)N[C@@H](CCCCN)C(=O)O)C(C)C)C(C)C [Peptide 26, Ac-nitroTyr-SGKGVALSLDDV-K-OH] (Ac-[Tyr(3-NO2)]SGKGVALSLDDVK-OH)"
4,100.0%,"CC(=O)N[C@@H](Cc1ccc(O)c([N+](=O)[O-])c1)C(=O)N[C@@H](CO)C(=O)NCC(=O)N[C@@H](CCCCN)C(=O)N[C@@H](Cc1c[nH]cn1)C(=O)N[C@H](C(=O)N[C@@H](C)C(=O)N[C@@H](CC(C)C)C(=O)N[C@@H](CO)C(=O)N[C@@H](CC(C)C)C(=O)N[C@@H](CC(=O)O)C(=O)N[C@@H](CC(=O)O)C(=O)N[C@H](C(=O)N[C@@H](CCCCN)C(=O)O)C(C)C)C(C)C [Peptide 27, Ac-nitroTyr-SGKHVALSLDDV-K-OH] (Ac-[Tyr(3-NO2)]SGKHVALSLDDVK-OH)"
5,100.0%,"CC[C@H](C)[C@H](NC(=O)[C@H](CCCCN)NC(=O)CNC(=O)[C@H](CO)NC(=O)[C@H](Cc1ccc(O)c([N+](=O)[O-])c1)NC(C)=O)C(=O)N[C@H](C(=O)N[C@@H](C)C(=O)N[C@@H](CC(C)C)C(=O)N[C@@H](CO)C(=O)N[C@@H](CC(C)C)C(=O)N[C@@H](CC(=O)O)C(=O)N[C@@H](CC(=O)O)C(=O)N[C@H](C(=O)N[C@@H](CCCCN)C(=O)O)C(C)C)C(C)C [Peptide 28, Ac-nitroTyr-SGKIVALSLDDV-K-OH] (Ac-[Tyr(3-NO2)]SGKIVALSLDDVK-OH)"
6,100.0%,"CC(=O)N[C@@H](Cc1ccc(O)c([N+](=O)[O-])c1)C(=O)N[C@@H](CO)C(=O)NCC(=O)N[C@@H](CCCCN)C(=O)N[C@@H](CCCCN)C(=O)N[C@H](C(=O)N[C@@H](C)C(=O)N[C@@H](CC(C)C)C(=O)N[C@@H](CO)C(=O)N[C@@H](CC(C)C)C(=O)N[C@@H](CC(=O)O)C(=O)N[C@@H](CC(=O)O)C(=O)N[C@H](C(=O)N[C@@H](CCCCN)C(=O)O)C(C)C)C(C)C [Peptide 29, Ac-nitroTyr-SGKKVALSLDDV-K-OH] (Ac-[Tyr(3-NO2)]SGKKVALSLDDVK-OH)"
7,100.0%,"CC(=O)N[C@@H](Cc1ccc(O)c([N+](=O)[O-])c1)C(=O)N[C@@H](CO)C(=O)NCC(=O)N[C@@H](CCCCN)C(=O)N[C@@H](CC(C)C)C(=O)N[C@H](C(=O)N[C@@H](C)C(=O)N[C@@H](CC(C)C)C(=O)N[C@@H](CO)C(=O)N[C@@H](CC(C)C)C(=O)N[C@@H](CC(=O)O)C(=O)N[C@@H](CC(=O)O)C(=O)N[C@H](C(=O)N[C@@H](CCCCN)C(=O)O)C(C)C)C(C)C [Peptide 30, Ac-nitroTyr-SGKLVALSLDDV-K-OH] (Ac-[Tyr(3-NO2)]SGKLVALSLDDVK-OH)"
8,100.0%,"CSCC[C@H](NC(=O)[C@H](CCCCN)NC(=O)CNC(=O)[C@H](CO)NC(=O)[C@H](Cc1ccc(O)c([N+](=O)[O-])c1)NC(C)=O)C(=O)N[C@H](C(=O)N[C@@H](C)C(=O)N[C@@H](CC(C)C)C(=O)N[C@@H](CO)C(=O)N[C@@H](CC(C)C)C(=O)N[C@@H](CC(=O)O)C(=O)N[C@@H](CC(=O)O)C(=O)N[C@H](C(=O)N[C@@H](CCCCN)C(=O)O)C(C)C)C(C)C [Peptide 31, Ac-nitroTyr-SGKMVALSLDDV-K-OH] (Ac-[Tyr(3-NO2)]SGKMVALSLDDVK-OH)"
9,100.0%,"CC(=O)N[C@@H](Cc1ccc(O)c([N+](=O)[O-])c1)C(=O)N[C@@H](CO)C(=O)NCC(=O)N[C@@H](CCCCN)C(=O)N[C@@H](CC(N)=O)C(=O)N[C@H](C(=O)N[C@@H](C)C(=O)N[C@@H](CC(C)C)C(=O)N[C@@H](CO)C(=O)N[C@@H](CC(C)C)C(=O)N[C@@H](CC(=O)O)C(=O)N[C@@H](CC(=O)O)C(=O)N[C@H](C(=O)N[C@@H](CCCCN)C(=O)O)C(C)C)C(C)C [Peptide 32, Ac-nitroTyr-SGKNVALSLDDV-K-OH] (Ac-[Tyr(3-NO2)]SGKNVALSLDDVK-OH)"
10,5.4%,"CC(=O)N[C@@H](Cc1ccc(O)c([N+](=O)[O-])c1)C(=O)N[C@@H](CO)C(=O)NCC(=O)N[C@@H](CCCCN)C(=O)N1CCC[C@H]1C(=O)N[C@H](C(=O)N[C@@H](C)C(=O)N[C@@H](CC(C)C)C(=O)N[C@@H](CO)C(=O)N[C@@H](CC(C)C)C(=O)N[C@@H](CC(=O)O)C(=O)N[C@@H](CC(=O)O)C(=O)N[C@H](C(=O)N[C@@H](CCCCN)C(=O)O)C(C)C)C(C)C [Peptide 33, Ac-nitroTyr-SGKPVALSLDDV-K-OH] (Ac-[Tyr(3-NO2)]SGKPVALSLDDVK-OH)"
11,100.0%,"CC(=O)N[C@@H](Cc1ccc(O)c([N+](=O)[O-])c1)C(=O)N[C@@H](CO)C(=O)NCC(=O)N[C@@H](CCCCN)C(=O)N[C@@H](CCC(N)=O)C(=O)N[C@H](C(=O)N[C@@H](C)C(=O)N[C@@H](CC(C)C)C(=O)N[C@@H](CO)C(=O)N[C@@H](CC(C)C)C(=O)N[C@@H](CC(=O)O)C(=O)N[C@@H](CC(=O)O)C(=O)N[C@H](C(=O)N[C@@H](CCCCN)C(=O)O)C(C)C)C(C)C [Peptide 34, Ac-nitroTyr-SGKQVALSLDDV-K-OH] (Ac-[Tyr(3-NO2)]SGKQVALSLDDVK-OH)"
12,100.0%,"CC(=O)N[C@@H](Cc1ccc(O)c([N+](=O)[O-])c1)C(=O)N[C@@H](CO)C(=O)NCC(=O)N[C@@H](CCCCN)C(=O)N[C@@H](CCCNC(=N)N)C(=O)N[C@H](C(=O)N[C@@H](C)C(=O)N[C@@H](CC(C)C)C(=O)N[C@@H](CO)C(=O)N[C@@H](CC(C)C)C(=O)N[C@@H](CC(=O)O)C(=O)N[C@@H](CC(=O)O)C(=O)N[C@H](C(=O)N[C@@H](CCCCN)C(=O)O)C(C)C)C(C)C [Peptide 35, Ac-nitroTyr-SGKRVALSLDDV-K-OH] (Ac-[Tyr(3-NO2)]SGKRVALSLDDVK-OH)"
13,100.0%,"CC(=O)N[C@@H](Cc1ccc(O)c([N+](=O)[O-])c1)C(=O)N[C@@H](CO)C(=O)NCC(=O)N[C@@H](CCCCN)C(=O)N[C@@H](CO)C(=O)N[C@H](C(=O)N[C@@H](C)C(=O)N[C@@H](CC(C)C)C(=O)N[C@@H](CO)C(=O)N[C@@H](CC(C)C)C(=O)N[C@@H](CC(=O)O)C(=O)N[C@@H](CC(=O)O)C(=O)N[C@H](C(=O)N[C@@H](CCCCN)C(=O)O)C(C)C)C(C)C [Peptide 36, Ac-nitroTyr-SGKSVALSLDDV-K-OH] (Ac-[Tyr(3-NO2)]SGKSVALSLDDVK-OH)"
14,100.0%,"CC(=O)N[C@@H](Cc1ccc(O)c([N+](=O)[O-])c1)C(=O)N[C@@H](CO)C(=O)NCC(=O)N[C@@H](CCCCN)C(=O)N[C@H](C(=O)N[C@H](C(=O)N[C@@H](C)C(=O)N[C@@H](CC(C)C)C(=O)N[C@@H](CO)C(=O)N[C@@H](CC(C)C)C(=O)N[C@@H](CC(=O)O)C(=O)N[C@@H](CC(=O)O)C(=O)N[C@H](C(=O)N[C@@H](CCCCN)C(=O)O)C(C)C)C(C)C)[C@@H](C)O [Peptide 37, Ac-nitroTyr-SGKTVALSLDDV-K-OH] (Ac-[Tyr(3-NO2)]SGKTVALSLDDVK-OH)"
15,100.0%,"CC(=O)N[C@@H](Cc1ccc(O)c([N+](=O)[O-])c1)C(=O)N[C@@H](CO)C(=O)NCC(=O)N[C@@H](CCCCN)C(=O)N[C@H](C(=O)N[C@H](C(=O)N[C@@H](C)C(=O)N[C@@H](CC(C)C)C(=O)N[C@@H](CO)C(=O)N[C@@H](CC(C)C)C(=O)N[C@@H](CC(=O)O)C(=O)N[C@@H](CC(=O)O)C(=O)N[C@H](C(=O)N[C@@H](CCCCN)C(=O)O)C(C)C)C(C)C)C(C)C [Peptide 38, Ac-nitroTyr-SGKVVALSLDDV-K-OH] (Ac-[Tyr(3-NO2)]SGKVVALSLDDVK-OH)"
